Assay results published in patent US6172110A, “Acylated betulin and dihydrobetulin derivatives, preparation thereof and use thereof” (The University of North Carolina at Chapel Hill, priority 1999, dated 2001).
Entries after “also recorded” stand apart in the source; their conditions may differ. Like-named read-outs stand apart in the source and are kept apart here.

Tests used:
[1] = Cytotoxicity: cell counts of mock-infected H9 cells; format: cell-based; conditions: human
Method: (§1) The biological evaluation of HIV-1 inhibition was carried out according to established protocols, (Kashiwada, Y., et al., J Med Chem. 39:1016-1017 (1996); Hashimoto, F., et al., Bioorg. & Med Chem. 5:2133-2143 (1997)). The T cell line, H9, was maintained in continuous culture with complete medium (RPMI 1640 with 10% fetal calf serum supplemented with L-glutamine at 5% CO2 and 37° C.). Aliquot of this cell line were only used in experiments when in log-phase growth. Test samples were first dissolved in dimethyl sulfoxide. The following final drug concentrations were routinely used for screening: 100, 20, 4 and 0.8 μg/ml. For active agents, additional dilutions were prepared for subsequent testing so that an accurate EC50 value (defined below) could be achieved. As the test samples were being prepared, an aliquot of the H9 cell line was infected with HIV-1 (IIIB isolate) while another aliquot was mock-infected with complete medium. […] The appropriate amount of virus for a multiplicity of infection (moi) between 0.1 and 0.01 Infectious Units/cell was added to the first aliquot of H9 cells. The other aliquot only received culture medium, and these mock-infected cells were used for toxicity determinations (IC50, defined below). After a 4 h incubation at 37° C. and 5% CO2, both cell populations were washed three times with fresh medium and then added to the appropriate wells of a 24 well-plate containing the various concentrations of the test drug or culture medium (positive infected control/negative drug control). In addition, AZT was also assayed during each experiment as a positive drug control. The plates were incubated at 37° C. and 5% CO2 for 4 days. Cell-free supernatants were collected on Day 4 for use in a p24 antigen ELISA assay. P24 antigen is a core protein of HIV and therefore is an indirect measure of virus present in the supernatants. Toxicity was determined by performing cell counts by a Coulter Counter on the mock-infected H9 cells which had either received culture medium (no toxicity), test sample, or AZT.
Compounds of the present invention were assayed for anti-HIV activity according to the following assay procedures. The T cell line, H9, and the promonocytic cell line, U937, were maintained separately in continuous culture with complete medium (RPMI 1640 with 10% fetal calf serum) at 5% CO2 and 37° C. The cell lines were used in experiments only when in the logarithmic phase of growth, whereas uninfected peripheral blood mononuclear cells (PBMCs) were first stimulated with PHA (1 μg/mL) for three days. All cell targets were incubated with HIV-1 (IIIB isolate, TCID50 10^4 IU/ml, at a multiplicity of infection of […] IU/cell) for one hour at 37° C. and 5% CO2. The cell lines and PBMCs were washed thoroughly to remove unadsorbed virions and resuspended at 4×10^5 cells/ml in complete medium or complete medium with 10% v/v interleukin 2 (IL-2) , respectively. One ml. aliquots were placed into wells of 24-well culture plates containing an equal volume of test compounds (diluted in the appropriate culture medium). The toxicity of each compound was assessed by determining the number of compound-exposed uninfected cells that remained after four days at 37° C. and 5% CO2. A p24 antigen ELISA assay was used to determine the level of virus released in the medium of the HIV-infected cultures. The p24 antigen assay used a HIV-1 anti-p24 specific monoclonal antibody as the capture antibody coated onto 96-well plates. Following a sample incubation period, rabbit serum containing antibodies for HIV-1 p24 was used to tag any p24 captured onto the microtiterwell surface. Peroxidase conjugated goat anti-rabbit serum was then used to tag HIV-1 p24 specific rabbit antibodies that had complexed with captured p24. […] The cutoff for the p24 ELISA assay was 12.5 pg/ml. P24 in the culture medium was quantitated against a standard curve containing known amounts of p24. […]

HIV-1 (IIIB isolate) = experiment: HIV-1 inhibition (p24 antigen ELISA) in infected H9 lymphocytes; format: cell-based; conditions: for EC50: Human immunodeficiency virus 1, IIIB, Lymphocyte, 96 h, read-out: Anti-HIV Activity EC50; for Therapeutic Index (TI = IC50/EC50): H9 cells, average of at least two experiments; for anti-HIV activity, result in words / TI, result in words: H-9 lymphocytes; for anti-HIV activity, result in words: EC50 compared with related compounds; for TI, result in words: compared with related compounds
Method: as §1, with “Aliquot” for “The biological evaluation of HIV-1 inhibition was carried out according to established protocols, (Kashiwada, Y., et al., J Med Chem. 39:1016-1017 (1996); Hashimoto, F., et al., Bioorg. & Med Chem. 5:2133-2143 (1997)). The T cell line, H9, was maintained in continuous culture with complete medium (RPMI 1640 with 10% fetal calf serum supplemented with L-glutamine at 5% CO2 and 37° C.). Aliquot”, “achieved.” for “achieved. As the test samples were being prepared, an aliquot of the H9 cell line was infected with HIV-1 (IIIB isolate) while another aliquot was mock-infected with complete medium.”
Compounds of the present invention were assayed for anti-HIV activity according to the following assay procedures. […] The cell lines were used in experiments only when in the logarithmic phase of growth, whereas uninfected peripheral blood mononuclear cells (PBMCs) were first stimulated with PHA (1 μg/mL) for three days. […] The cell lines and PBMCs were washed thoroughly to remove unadsorbed virions and resuspended at 4×10^5 cells/ml in complete medium or complete medium with 10% v/v interleukin 2 (IL-2) , respectively. One ml. aliquots were placed into wells of 24-well culture plates containing an equal volume of test compounds (diluted in the appropriate culture medium). The toxicity of each compound was assessed by determining the number of compound-exposed uninfected cells that remained after four days at 37° C. and 5% CO2. A p24 antigen ELISA assay was used to determine the level of virus released in the medium of the HIV-infected cultures. The p24 antigen assay used a HIV-1 anti-p24 specific monoclonal antibody as the capture antibody coated onto 96-well plates. […] P24 in the culture medium was quantitated against a standard curve containing known amounts of p24. The effective (EC50) and inhibitory (IC50) concentrations for anti-HIV activity and cytotoxicity, respectively, were determined.

[2] = toxic to 50% of mock-infected H9 cells, 4 days, average of at least two experiments, read-out: Cytotoxicity IC50

SMILES | CC50 at 96 h [1, 2] [µM] | EC50 (HIV-1 (IIIB isolate)) [µM] | CC50 at 96 h ([1]; h9 cells) [µM] | Therapeutic Index (TI = IC50/EC50) (HIV-1 (IIIB isolate)) | anti-HIV activity, result in words (HIV-1 (IIIB isolate)) | TI, result in words (HIV-1 (IIIB isolate)) | fold more potent than compound 2 (HIV-1 (IIIB isolate); compared with compound 2) | fold drop in TI on saturation of C20-C29 double bond (HIV-1 (IIIB isolate); compared with compound 4) [fold] | fold drop in activity on saturation of C20-C29 double bond (HIV-1 (IIIB isolate); compared with compound 4) [fold] | fold more potent than compound 3 (HIV-1 (IIIB isolate); compared with compound 3 (betulin)) [fold]
Cc1cn([C@H]2C[C@H](N=[N+]=[N-])[C@@H](CO)O2)c(=O)[nH]c1=O [AZT, reference compound] | 500 |  |  |  |  |  |  |  |  | 
C=C(C)[C@@H]1CC[C@]2(C(=O)O)CC[C@]3(C)[C@H](CC[C@@H]4[C@@]5(C)CC[C@H](OC(=O)CC(C)(C)CC(=O)O)C(C)(C)[C@@H]5CC[C@]43C)[C@@H]12 [Compound 2, reference compound] |  | 0.0023 | 4.5 |  |  |  |  |  |  | 
C=C(C)[C@@H]1CC[C@]2(CO)CC[C@]3(C)[C@H](CC[C@@H]4[C@@]5(C)CC[C@H](O)C(C)(C)[C@@H]5CC[C@]43C)[C@@H]12 [Compound 3, betulin] | 43.7 | 23 |  | 1.9 | less potent than betulinic acid (1) |  |  |  |  | 
C=C(C)[C@@H]1CC[C@]2(COC(=O)CC(C)(C)CC(=O)O)CC[C@]3(C)[C@H](CC[C@@H]4[C@@]5(C)CC[C@H](OC(=O)CC(C)(C)CC(=O)O)C(C)(C)[C@@H]5CC[C@]43C)[C@@H]12 [Compound 4, 3,28-Di-O-(3',3'-dimethylglutaryl)-betulin] |  | 0.00066 | 14.2 | 21,515 | significantly enhanced activity; also recorded: remarkable anti-HIV activity even greater than that of the betulinic acid derivative 2 | remarkably high therapeutic index (TI); also recorded: higher TI than compound 2 | about 3 fold |  |  | 
C=C(C)[C@@H]1CC[C@]2(COC(=O)CC(C)(CC)CC(=O)O)CC[C@]3(C)[C@H](CC[C@@H]4[C@@]5(C)CC[C@H](OC(=O)CC(C)(CC)CC(=O)O)C(C)(C)[C@@H]5CC[C@]43C)[C@@H]12 (stereo partly shown) [Compound 5, 3,28-Di-O-(3',3'-methylethylglutaryl)-betulin] |  | 0.0053 | 18.4 | 3,476 | in the nanomolar range; also recorded: less active compared with compound 4 |  |  |  |  | 
C=C(C)[C@@H]1CC[C@]2(COC(=O)CC3(CC(=O)O)CCCC3)CC[C@]3(C)[C@H](CC[C@@H]4[C@@]5(C)CC[C@H](OC(=O)CC6(CC(=O)O)CCCC6)C(C)(C)[C@@H]5CC[C@]43C)[C@@H]12 [Compound 6, 3,28-Di-O-(3',3'-tetramethyleneglutaryl)-betulin] |  | 0.077 | 20.5 | 267 | in the nanomolar range; also recorded: less active compared with compound 4; also recorded: least activity | lowest TI values |  |  |  | 
CC(C)[C@@H]1CC[C@]2(COC(=O)CC(C)(C)CC(=O)O)CC[C@]3(C)[C@H](CC[C@@H]4[C@@]5(C)CC[C@H](OC(=O)CC(C)(C)CC(=O)O)C(C)(C)[C@@H]5CC[C@]43C)[C@@H]12 [Compound 8, 3,28-Di-O-(3',3'-dimethyglutaryl)-dihydrobetulin] |  | 0.0047 | 10.6 | 2,253 |  |  |  | ~9 | ~7 | 
CCC(C)(CC(=O)O)CC(=O)OC[C@]12CC[C@@H](C(C)C)[C@@H]1[C@H]1CC[C@@H]3[C@@]4(C)CC[C@H](OC(=O)CC(C)(CC)CC(=O)O)C(C)(C)[C@@H]4CC[C@@]3(C)[C@]1(C)CC2 (stereo partly shown) [Compound 9, 3,28-Di-O-(3',3'-methylethylglutaryl)-dihydrobetulin] |  | 0.075 | 18.7 | 248 | less inhibition than the unsaturated 5 and 6 |  |  |  |  | 
CC(C)[C@@H]1CC[C@]2(COC(=O)CC3(CC(=O)O)CCCC3)CC[C@]3(C)[C@H](CC[C@@H]4[C@@]5(C)CC[C@H](OC(=O)CC6(CC(=O)O)CCCC6)C(C)(C)[C@@H]5CC[C@]43C)[C@@H]12 [Compound 10, 3,28-Di-O-(3',3'-tetramethyleneglutaryl)-dihydrobetulin] |  | 0.58 | 21.6 | 37 | less inhibition than the unsaturated 5 and 6; also recorded: least activity | lowest TI values |  |  |  | 
C=C(C)[C@@H]1CC[C@]2(COC(=O)CC(C)(C)CC(=O)O)CC[C@]3(C)[C@H](CC[C@@H]4[C@@]5(C)CC[C@H](O)C(C)(C)[C@@H]5CC[C@]43C)[C@@H]12 [Compound 11, 28-O-(3',3'-Dimethylglutaryl)-betulin] |  | 3.6 | 28.2 | 7.8 | much less potent than 4 |  |  |  |  | 6
C=C(C)[C@@H]1CC[C@]2(COC(=O)CC(C)(C)CC(=O)O)CC[C@]3(C)[C@H](CC[C@@H]4[C@@]5(C)CCC(=O)C(C)(C)[C@@H]5CC[C@]43C)[C@@H]12 [Compound 12, 3-Deoxy-3-oxo-28-O-(3',3'-dimethylglutaryl)-betulin] |  | 10 | 29.2 | 2.9 | decreased activity further |  |  |  |  | 
C=C(C)[C@@H]1CC[C@]2(COC(=O)CC(C)(C)CC(=O)O)CC[C@]3(C)[C@H](CC[C@@H]4[C@@]5(C)CC=CC(C)(C)[C@@H]5CC[C@]43C)[C@@H]12 [Compound 14] |  | 5.4 | 28.3 | 5.2 | increased anti-HIV activity |  |  |  |  | 
